From patent EP0129499B1, “13-Alpha-alkyl gonanes, their preparation and pharmaceutical compositions containing them” (SCHERING AKTIENGESELLSCHAFT, priority 1983, dated 1984)

Key:
weiblichen Ratten [1] = experiment: Abortive effect in an advanced phase post nidationem (Experiment II), treatment d 13-15 p.c., s.c.; type: in vivo; details: 3-day s.c. administration of 3,0 mg/d, rat
Source text: (§1) Zur Kennzeichnung der antigestagenen Wirkung der erfindungsgemässen Verbindungen wurde die abortive Wirkung in einer frühen Phase post nidationem (Experiment I) und in einer fortgeschrittenen Phase post nidationem (Experiment II) untersucht.
(§2) Die Versuche wurden an weiblichen Ratten im Gewicht von ca. 200 g durchgeführt. Nach erfolgter Anpaarung wurde der Schwangerschaftsbeginn durch Nachweis von Spermien in Vaginalabstrichen gesichert. Der Tag des Spermiennachweises gilt als Tag 1 der Gravidität (= d 1 p.c.).
(§3) Die Behandlung der Tiere mit der jeweils zu testenden Substanz bzw. dem Lösungsmittel erfolgte nach der Nidation der Blastocysten von d 5 p.c. bis d 7 p.c. (Experiment I) bzw. d 13 p.c. bis d 15 p.c. (Experiment II). An d 9 p.c. bzw. d 17 p.c. wurden die Tiere getötet und die Uteri auf Implantate und Resorptionsstellen hin untersucht. Von allen Uteri wurden Fotos angefertigt. Das Fehlen von Implantaten wurde als Abort gewertet.
(§4) Als Antigestagene wurden untersucht: • A: 11β-(4-Dimethylaminophenyl)-17β-hydroxy- 17a-propinyl-4,9-estradien-3-on (Referenzsubstanz). • B: 11 β-(4-Dimethylaminophenyl)-17β-hydroxy-17a- (3-hydroxypropyl)-13a-methyl-4,9-go- nadien-3-on (gemäss Erfindung). • C: 11β-(4-Dimethylaminophenyl)-17α-hydroxy-17ß- (3-hydroxypropyl)-13a-methyl-4,9-go- nadien-3-on (gemäss Erfindung).
Die Testsubstanzen wurden in einem Benzylbenzoat-Rizinusöl-Gemisch (Verhältnis 1:4) gelöst. Das Vehikelvolumen pro Einzeldosis betrug 0,2 ml. Die Behandlung erfolgte subcutan (s.c.). […]

weiblichen Ratten [2] = experiment: Abortive effect in an early phase post nidationem (Experiment I), treatment d 5-7 p.c., s.c.; type: in vivo; details: frühgravide Ratte; for Abortrate: Dosierungen ≧ 1,0 mg/d, absence of implants at d 9 p.c. counted as abortion
Source text: as §1, §2, §3, §4
Die Testsubstanzen wurden in einem Benzylbenzoat-Rizinusöl-Gemisch (Verhältnis 1:4) gelöst. Das Vehikelvolumen pro Einzeldosis betrug 0,2 ml. Die Behandlung erfolgte subcutan (s.c.). [drawing 1] worin [drawing 2] mit R^1 und R" in der Bedeutung von Wasserstoff oder Alkyl mit 1 bis 4 Kohlenstoffatomen oder R^I und R" unter Einschluss von N in der Bedeutung eines gesättigten 5- oder 6-gliedrigen Ringes, wobei im Ring ausser N noch ein weiteres Heteroatom wie 0, N, S enthalten sein kann, sowie die entsprechenden tertiären N-Oxide und die Säureadditionssalze, • -OR^III mit R"' in der Bedeutung von Methyl, Ethyl, Propyl, Methoxyphenyl, Allyl oder β-Dimethylaminoethyl, • R^2 ein Wasserstoffatom, eine Methyl- oder Ethylgruppe, • R^3-(CH2)n-CH3 mit n=0-4, • -(CH2)n-CH2-O(S)R^IV mit n=0-4 und R^IV in der Bedeutung von Wasserstoff oder Alkyl mit 1 bis 4 Kohlenstoffatomen, • -CH=CH-(CH2)n-OR^V mit n=1-4 und R^V in der Bedeutung von Wasserstoff, Alkyl oder Alkanoyl mit jeweils 1 bis 4 Kohlenstoffatomen, • -C≡C-X mit X in der Bedeutung von Wasserstoff, Alkyl mit 1 bis 4 Kohlenstoffatomen oder Halogen, • -(CH2)n-CH2CN mit n=0-3 oder [drawing 3] Y mit Y in der Bedeutung von Wasserstoff oder OR^v mit R^V in der oben angegebenen Bedeutung, • R^4 Hydroxy, Alkyloxy oder Alkanoyloxy mit jeweils 1 bis 4 Kohlenstoffatomen oder R^3/R4 [drawing 4] wobei R^3 in a-Stellung und R^4 in β-Stellung oder R^3 in β-Stellung und R^4 in a-Stellung zum Steroidgerüst stehen, und • R^5 ein Wasserstoffatom oder eine a- oder β-ständige Alkylgruppe mit 1 bis 4 Kohlenstoffatomen bedeuten. […]

Structure (SMILES) | Prozentsatz kompletter Aborte (weiblichen Ratten [1]) | Dosierung für voll abortive / maximale abortauslösende (antigestagene) Wirkung (weiblichen Ratten [2]) | Abortrate (weiblichen Ratten [2])
CC#C[C@]1(O)CC[C@H]2[C@@H]3CCC4=CC(=O)CCC4=C3[C@@H](c3ccc(N(C)C)cc3)C[C@@]21C [A, 11β-(4-Dimethylaminophenyl)-17β-hydroxy-17a-propinyl-4,9-estradien-3-on, reference compound] | 3,5% | > 3,0 mg/d | –
CN(C)c1ccc([C@H]2C[C@]3(C)[C@@H](CC[C@@]3(O)CCCO)[C@@H]3CCC4=CC(=O)CCC4=C32)cc1 [B, 11 β-(4-Dimethylaminophenyl)-17β-hydroxy-17a-(3-hydroxypropyl)-13a-methyl-4,9-go-nadien-3-on] | 35,4% | ≥ 1,0 mg/d | 4/4
CN(C)c1ccc([C@H]2C[C@]3(C)[C@@H](CC[C@]3(O)CCCO)[C@@H]3CCC4=CC(=O)CCC4=C32)cc1 [C, 11β-(4-Dimethylaminophenyl)-17α-hydroxy-17ß-(3-hydroxypropyl)-13a-methyl-4,9-go-nadien-3-on] | 52,3% | ≥ 1,0 mg/d | 4/4
